The values that follow come from patent US7528162B2, “4,5-dihydro-1H-pyrazole derivatives having CB1-antagonistic activity” (Solvay Pharmaceuticals, B.V., priority 2001, dated 2009).

Molecules are shown by their SMILES.

As usually defined, the melting point is the temperature of the solid-liquid transition. In turn, `CONC(=NS(=O)(=O)c1cccc(C)c1)N1CC(c2ccccc2)C(c2ccc(Cl)cc2)=N1` (stereo not drawn) registered a melting point of 151 to 152 °C.
Regarding `CONC(=NS(=O)(=O)c1ccccc1C)N1CC(c2ccccc2)C(c2ccc(Cl)cc2)=N1` (stereo not drawn), the melting point lay in the range of 145 to 146 °C.
The figure for `CONC(=NS(=O)(=O)c1cc(F)c(F)cc1F)N1CC(c2ccccc2)C(c2ccc(Cl)cc2)=N1` (stereo not drawn) is 160 to 162 °C.
The molecule `CONC(=NS(=O)(=O)c1ccc(Cl)cc1)N1CC(c2ccccc2)C(c2ccc(F)cc2)=N1` (stereo not drawn) had a melting point of 201 to 203 °C.
As for `CONC(=NS(=O)(=O)c1ccc(Cl)cc1)N1CC(c2c(F)cccc2F)C(c2ccc(Cl)cc2)=N1` (stereo not drawn), the figure is 174 to 177 °C; as for `O=S(=O)(N=C(NCCF)N1CC(c2cccc(F)c2)C(c2ccc(Cl)cc2)=N1)c1ccc(Cl)cc1` (stereo not drawn), 130 °C.
For `CONC(=NS(=O)(=O)c1ccc(C(F)(F)F)cc1)N1CC(c2cccc(F)c2)C(c2ccc(Cl)cc2)=N1` (stereo not drawn), the melting point is > 260 °C.
The figure for `CONC(=NS(=O)(=O)c1ccc(C(F)(F)F)cc1)N1CC(c2ccccc2F)C(c2ccc(Cl)cc2)=N1` (stereo not drawn) is 147 to 149 °C.
In turn, `O=S(=O)(N=C(NN1CCCCC1)N1CC(c2ccccc2)C(c2ccc(Cl)cc2)=N1)c1ccc(Cl)cc1` (stereo not drawn) [Example 1, 3-(4-Chlorophenyl)-N′-((4-chlorophenyl)sulfonyl)-N-(piperidin-1-yl)-4-phenyl-4,5-dihydro-1H-pyrazole-1-carboxamidine] had a melting point of 213 to 214 °C.
As for `CONC(=NS(=O)(=O)c1ccc(Cl)cc1)N1CC(c2ccccc2)C(c2ccc(Cl)s2)=N1` (stereo not drawn) [Example 47, 3-(5-Chlorothien-2-yl)-N′-((4-chlorophenyl)sulfonyl)-N-methoxy-4-phenyl-4,5-dihydro-1H-pyrazole-1-carboxamidine], the melting point is 180 to 181 °C.
`CONC(=NS(=O)(=O)c1ccc(Cl)cc1)N1CC(c2cccc(C(F)(F)F)c2)C(c2ccc(Cl)cc2)=N1` (stereo not drawn) [Example 49, 3-(4-Chlorophenyl)-N′-((4-chlorophenyl)sulfonyl)-N-methoxy-4-(3-(trifluoromethyl)phenyl)-4,5-dihydro-1H-pyrazole-1-carboxamidine] displayed a melting point of 80 to 83 °C.
The figure for `O=S(=O)(N=C(NCCF)N1CC(c2c(F)cccc2F)C(c2ccc(Cl)cc2)=N1)c1ccc(Cl)cc1` (stereo not drawn) [Example 51, 3-(4-Chlorophenyl)-N′-((4-chlorophenyl)sulfonyl)-N-(2-fluoroethyl)-4-(2,6-difluorophenyl)-4,5-dihydro-1H-pyrazole-1-carboxamidine] is 153 to 155 °C.
In turn, `O=S(=O)(N=C(NCCF)N1CC(c2cccc(F)c2)C(c2ccc(Cl)cc2)=N1)c1ccc(C(F)(F)F)cc1` (stereo not drawn) [Example 53, 3-(4-Chlorophenyl)-N-(2-fluoroethyl)-4-(3-fluorophenyl)-N′-((4-(trifluoromethyl)phenyl)sulfonyl)-4,5-dihydro-1H-pyrazole-1-carboxamidine] showed a melting point of 155 °C.
On to `CONC(=NS(=O)(=O)c1ccc(Cl)cc1)N1CC(c2ccccc2F)C(c2ccc(Cl)cc2)=N1` (stereo not drawn) [Example 56, 3-(4-Chlorophenyl)-N′-((4-chlorophenyl)sulfonyl)-4-(2-fluorophenyl)-N-(methoxy)-4,5-dihydro-1H-pyrazole-1-carboxamidine], for which the melting point lay within 162 to 164 °C.
The figure for `CN1CCN(C(=NS(=O)(=O)c2ccc(Cl)cc2)N2CC(c3cccc(C(F)(F)F)c3)C(c3ccc(Cl)cc3)=N2)CC1` (stereo not drawn) [Example 86, N-[(3-(4-chlorophenyl)-4-(3-(trifluoromethyl)phenyl)-4,5-dihydro-1H-pyrazol-1-yl)(4-methylpiperazin-1-yl)methylene]-4-chlorobenzenesulfonamide] is 97 to 100 °C.
